A value given as a limit tells only on which side of the number the result lay.

The first test has as its target T1, Mammalian DNA-PK, isolated from Hela cell nuclear extract (Homo sapiens, UniProt P78527).
T1 construct: Mammalian DNA-PK, isolated from Hela cell nuclear extract; endogenous in cells; host or cells: HeLa cell nuclear extract (purified per Gell and Jackson 1999)
Kind of test: DNA-PK inhibition assay (33P-ATP, filter binding). It is filed as biochemical.
Conditions: not given
Here is the method: In order to assess the inhibitory action of the compounds against DNA-PK in vitro, the following assay was used to determine IC50 values.
The total assay volume per well was 40 μl.
After 10 minutes of incubation at 30° C. the reactions were initiated by the addition of Na-ATP (50 μM final), ^33p-γATP and a 30mer double stranded DNA oligonucleotide (10 ng/μl) in a volume of 10 μl. Designated positive and negative reaction wells were done in combination with compound wells (unknowns) in order to calculate % enzyme activities. The plates were then shaken for 2 minutes and incubated at 30° C. for 45 minutes.
Following the incubation, the reactions were quenched by the addition of 50 μl 30% acetic acid to each well. The plates were then shaken for 5 minutes and the contents of each plate (80 μl from each well) transferred over to a 96 well Polyfiltronics filtration plate, containing P81-phosphocellulose membrane (TRADE MARK)(Whatman, UK). The solutions were vacuum pumped through the membrane and each well membrane washed four times using 300 μl of 15% acetic acid. The well membranes were then air dried and 20 μl of scintillant was added to each well.
The plates were transferred to a TopCount NXT (TRADE MARK) (Packard, UK) for scintillation counting. Values recorded are counts per minute (cpm) following a 1 minute counting time for each well.
The enzyme activity for each compound is then calculated using the following equation: […]
These are determined over a range of different concentrations, normally from 10 μM down to 0.01 μM. Such IC50 values are used as comparative values to identify increased compound potencies.
In general, IC50 refers to the point on the concentration scale where inhibition reaches its midpoint. `O=C(NC1CN2CCC1CC2)c1ccc(-c2cc(=O)cc(N3CCOCC3)o2)cc1` (stereo not drawn) [Compound 206]: the concentration for half-maximal inhibition (IC50) was less than 1000 nM.

The same test, now with this note: IC50 of less than about 1 μM and/or % inhibition of more than about 50 at 1 μM; read-out: DNA-PK inhibition IC50 (particular efficacy).
As for `O=c1cc(-c2ccc3c(c2)CCO3)oc(N2CCOCC2)c1` [Compound 59], the IC50 was less than 1000 nM.
`O=c1cc(-c2ccc3c(c2)OCCO3)oc(N2CCOCC2)c1` [Compound 60]: the half-inhibitory concentration (IC50) is less than 1000 nM.
Turning to `O=c1cc(-c2cccc3ccsc23)oc(N2CCOCC2)c1` [Compound 72], the IC50 was less than 1000 nM.
Still for that read-out and setting: as for `N#CCNC(=O)c1cccc(-c2cc(=O)cc(N3CCOCC3)o2)c1` [Compound 73], the figure is less than 1000 nM; as for `O=C(NC1CC1)c1cccc(-c2cc(=O)cc(N3CCOCC3)o2)c1` [Compound 74], less than 1000 nM; as for `O=C(NCc1cccc(C(F)(F)F)c1)c1cccc(-c2cc(=O)cc(N3CCOCC3)o2)c1` [Compound 99], less than 1000 nM.
Same read-out and setting: as for `Nc1cccc(CNC(=O)c2cccc(-c3cc(=O)cc(N4CCOCC4)o3)c2)c1` [Compound 104], the figure is less than 1000 nM; as for `CN(C)c1ccc(CNC(=O)c2cccc(-c3cc(=O)cc(N4CCOCC4)o3)c2)cc1` [Compound 105], less than 1000 nM.
Turning to `CN(C)CCN(Cc1ccccc1)C(=O)c1cccc(-c2cc(=O)cc(N3CCOCC3)o2)c1` [Compound 106], the IC50 was less than 1000 nM.
Take `NCc1cccc(CNC(=O)c2cccc(-c3cc(=O)cc(N4CCOCC4)o3)c2)c1` [Compound 107]: the IC50 was less than 1000 nM.
For the molecule `O=C(NC1CCC(O)CC1)c1cccc(-c2cc(=O)cc(N3CCOCC3)o2)c1` (stereo not drawn) [Compound 114], the IC50 is less than 1000 nM.
Regarding `CCN(CC)CCCNC(=O)c1cccc(-c2cc(=O)cc(N3CCOCC3)o2)c1` [Compound 118], the IC50 was less than 1000 nM.
The same measure, in the same setting: with `O=C(CNC(=O)c1cccc(-c2cc(=O)cc(N3CCOCC3)o2)c1)c1cccc([N+](=O)[O-])c1` [Compound 123] the figure was less than 1000 nM; with `COCCCNC(=O)c1cccc(-c2cc(=O)cc(N3CCOCC3)o2)c1` [Compound 125], less than 1000 nM.
Consider `O=C(NCCOc1ccccc1)c1cccc(-c2cc(=O)cc(N3CCOCC3)o2)c1` [Compound 126], for which the IC50 was less than 1000 nM.
For `COCCNC(=O)c1cccc(-c2cc(=O)cc(N3CCOCC3)o2)c1` [Compound 127], the IC50 is less than 1000 nM.
Turning to `O=C(NCc1cccs1)c1cccc(-c2cc(=O)cc(N3CCOCC3)o2)c1` [Compound 131], the half-inhibitory concentration (IC50) is less than 1000 nM.
The same measure, in the same setting: with `O=C(c1cccc(-c2cc(=O)cc(N3CCOCC3)o2)c1)N1CCOCC1` [Compound 139] the figure was less than 1000 nM; with `O=C(c1cccc(-c2cc(=O)cc(N3CCOCC3)o2)c1)N1CCCC(CO)C1` (stereo not drawn) [Compound 140], less than 1000 nM; with `O=C(c1cccc(-c2cc(=O)cc(N3CCOCC3)o2)c1)N1CCN(C/C=C/c2ccccc2)CC1` [Compound 143], less than 1000 nM.
Same read-out and setting: with `O=C(NN1CCOCC1)c1cccc(-c2cc(=O)cc(N3CCOCC3)o2)c1` [Compound 146] the figure was less than 1000 nM; with `Cc1ccccc1CNC(=O)c1ccc(-c2cc(=O)cc(N3CCOCC3)o2)cc1` [Compound 163], less than 1000 nM; with `O=C(c1ccc(-c2cc(=O)cc(N3CCOCC3)o2)cc1)N(Cc1ccccc1)Cc1ccccc1` [Compound 166], less than 1000 nM.
On the same count and under the same terms, as for `COc1ccc(CCNC(=O)c2ccc(-c3cc(=O)cc(N4CCOCC4)o3)cc2)cc1` [Compound 167], the figure is less than 1000 nM.
Take `O=C(NCc1cccc(F)c1)c1ccc(-c2cc(=O)cc(N3CCOCC3)o2)cc1` [Compound 169]: the IC50 is less than 1000 nM.
Same read-out and setting: as for `O=C(NCCCc1ccccc1)c1ccc(-c2cc(=O)cc(N3CCOCC3)o2)cc1` [Compound 170], the figure is less than 1000 nM; as for `CC(CNC(=O)c1ccc(-c2cc(=O)cc(N3CCOCC3)o2)cc1)c1ccc(Cl)cc1` (stereo not drawn) [Compound 173], less than 1000 nM.
On to `O=C(NCc1ccc(OC(F)(F)F)cc1)c1ccc(-c2cc(=O)cc(N3CCOCC3)o2)cc1` [Compound 175], for which the IC50 is less than 1000 nM.
On the same count and under the same terms, as for `O=C(NCc1cc(C(F)(F)F)cc(C(F)(F)F)c1)c1ccc(-c2cc(=O)cc(N3CCOCC3)o2)cc1` [Compound 176], the figure is less than 1000 nM.
Same read-out and setting: as for `O=C(NCc1cccc(C(F)(F)F)c1)c1ccc(-c2cc(=O)cc(N3CCOCC3)o2)cc1` [Compound 178], the figure is less than 1000 nM.
As to `O=C(NCc1cc(F)cc(C(F)(F)F)c1)c1ccc(-c2cc(=O)cc(N3CCOCC3)o2)cc1` [Compound 179], the half-inhibitory concentration (IC50) was less than 1000 nM.
On the same count and under the same terms, with `Nc1cccc(CNC(=O)c2ccc(-c3cc(=O)cc(N4CCOCC4)o3)cc2)c1` [Compound 182] the figure was less than 1000 nM; with `O=C(NCCSCc1c(F)cccc1Cl)c1ccc(-c2cc(=O)cc(N3CCOCC3)o2)cc1` [Compound 187], less than 1000 nM; with `O=C(NC(CO)CO)c1ccc(-c2cc(=O)cc(N3CCOCC3)o2)cc1` [Compound 190], less than 1000 nM.
On the same count and under the same terms, with `CSCCC(CO)NC(=O)c1ccc(-c2cc(=O)cc(N3CCOCC3)o2)cc1` (stereo not drawn) [Compound 192] the figure was less than 1000 nM.
Regarding `CC(C)(C)OC(=O)CNC(=O)c1ccc(-c2cc(=O)cc(N3CCOCC3)o2)cc1` [Compound 194], the IC50 was less than 1000 nM.
Turning to `COCC(Cc1ccccc1)NC(=O)c1ccc(-c2cc(=O)cc(N3CCOCC3)o2)cc1` (stereo not drawn) [Compound 200], the IC50 was less than 1000 nM.
Consider `O=C(NCCOc1ccccc1)c1ccc(-c2cc(=O)cc(N3CCOCC3)o2)cc1` [Compound 202], for which the 50% inhibitory concentration (IC50) is less than 1000 nM.
Still for that read-out and setting: as for `O=C(NCCCNC(=O)c1ccc(-c2cc(=O)cc(N3CCOCC3)o2)cc1)OCc1ccccc1` [Compound 203], the figure is less than 1000 nM; as for `O=C(NC1CCN(Cc2ccccc2)CC1)c1ccc(-c2cc(=O)cc(N3CCOCC3)o2)cc1` [Compound 205], less than 1000 nM.
Take `O=C(NCc1ccco1)c1ccc(-c2cc(=O)cc(N3CCOCC3)o2)cc1` [Compound 211]: the concentration for half-maximal inhibition (IC50) is less than 1000 nM.
The same measure, in the same setting: with `O=C(NCc1ccccn1)c1ccc(-c2cc(=O)cc(N3CCOCC3)o2)cc1` [Compound 214] the figure was less than 1000 nM; with `CCOC(=O)C1CCCN(C(=O)c2ccc(-c3cc(=O)cc(N4CCOCC4)o3)cc2)C1` (stereo not drawn) [Compound 215], less than 1000 nM; with `COC(=O)C(NCc1ccc(-c2cc(=O)cc(N3CCOCC3)o2)cc1)c1ccccc1` (stereo not drawn) [Compound 247], less than 1000 nM.
Consider `O=c1cc(-c2ccc(CNCc3cccc(F)c3)cc2)oc(N2CCOCC2)c1` [Compound 249], for which the IC50 is less than 1000 nM.
As to `O=c1cc(-c2ccc(CNCc3ccc(OC(F)(F)F)cc3)cc2)oc(N2CCOCC2)c1` [Compound 252], the IC50 is less than 1000 nM.
For `COc1cccc(CNCc2ccc(-c3cc(=O)cc(N4CCOCC4)o3)cc2)c1OC` [Compound 253], the 50% inhibitory concentration (IC50) was less than 1000 nM.
Consider `Nc1ccccc1CNCc1ccc(-c2cc(=O)cc(N3CCOCC3)o2)cc1` [Compound 255], for which the half-maximal inhibitory concentration (IC50) is less than 1000 nM.
Same read-out and setting: with `O=c1cc(-c2ccc(CN3Cc4cccc5cccc(c45)C3)cc2)oc(N2CCOCC2)c1` [Compound 258] the figure was less than 1000 nM; with `O=c1cc(-c2ccc(CN3CCc4ccccc4C3)cc2)oc(N2CCOCC2)c1` [Compound 260], less than 1000 nM.
As to `CC(=O)OC(C)C(=O)Nc1ccc(-c2cc(=O)cc(N3CCOCC3)o2)cc1` (stereo not drawn) [Compound 267], the 50% inhibitory concentration (IC50) is less than 1000 nM.
On the same count and under the same terms, with `CC(O)C(=O)Nc1ccc(-c2cc(=O)cc(N3CCOCC3)o2)cc1` (stereo not drawn) [Compound 268] the figure was less than 1000 nM; with `CCOC(=O)CC(=O)Nc1ccc(-c2cc(=O)cc(N3CCOCC3)o2)cc1` [Compound 269], less than 1000 nM; with `O=C(CSc1ccccc1)Nc1ccc(-c2cc(=O)cc(N3CCOCC3)o2)cc1` [Compound 270], less than 1000 nM.
The same measure, in the same setting: with `O=C(Cc1cccs1)Nc1ccc(-c2cc(=O)cc(N3CCOCC3)o2)cc1` [Compound 271] the figure was less than 1000 nM; with `O=C(Nc1ccc(-c2cc(=O)cc(N3CCOCC3)o2)cc1)C1CCCN1C(=O)C(F)(F)F` (stereo not drawn) [Compound 279], less than 1000 nM; with `O=c1cc(N2CCC(CO)CC2)oc2c1ccc1ccccc12` [Compound 318, 2-(4-Hydroxymethyl-piperidin-1-yl)-benzo[h]chromen-4-one], less than 1000 nM.
Still for that read-out and setting: as for `N#Cc1ccc(COc2ccc3c(=O)cc(N4CCOCC4)oc3c2)cc1` [Compound 338, 7-(4-cyano-benzyloxy)-2-morpholin-4-yl-chromen-4-one], the figure is less than 1000 nM.

The test is the same for the next values; noted with them: concentration at which 50% of the enzyme activity is inhibited; read-out: DNA-PK Inhibition IC50.
As for `O=c1cc(N2CCCC2)oc2c1ccc1ccccc12` [Compound 312, 2-pyrrolidin-1-yl-benzo[h]chromen-4-one], the IC50 turned out to be 10000 nM.
For the molecule `O=c1cc(N2CCSC2)oc2c1ccc1ccccc12` [Compound 330, 2-(Thiazolidin-3-yl)-benzo[h]chromen-4-one], the 50% inhibitory concentration (IC50) came out at 20000 nM.
On to `N#Cc1ccc(COc2ccc3c(=O)cc(N4CCOCC4)oc3c2)cc1` [Compound 338, 7-(4-cyano-benzyloxy)-2-morpholin-4-yl-chromen-4-one], for which the IC50 is 950 nM.

Staying with this test, now noted: read-out: DNA-PK Inhibition IC50.
Consider `O=c1cc(N2CC[C@H](O)C2)nc2c3ccccc3ccn12` [Compound 12, 2-((S)-3-Hydroxy-pyrrolin-1-yl)-pyrimido[2,1-a]isoquinolin-4-one], for which the IC50 stood at 10500 nM.

The values above are taken from patent publication US7674823B2, “DNA-PK inhibitors” (Cancer Research Technology Limited, priority 2001, dated 2010).
